Reference: ChEMBL document CHEMBL1147899, “Raman, FT-IR, NMR spectroscopic data and antimicrobial activity of bis[micro2-(benzimidazol-2-yl)-2-ethanethiolato-N,S,S-chloro-palladium(II)] dimer, [(micro2-CH2CH2NHNCC6H4)PdCl]2.C2H5OH complex” (2007)

Experiments:
Type in all cases: functional
Listeria monocytogenes [1] = assay: Antibacterial activity against Listeria monocytogenes ATCC 15313 at 10 ug after 24 hrs by disk diffusion method; settings: ATCC 15313, 24 h, read-out: IZ
Bacillus cereus [2] = assay: Antibacterial activity against Bacillus cereus ATCC 7064 at 10 ug after 24 hrs by disk diffusion method; settings: ATCC 7064, 24 h, read-out: IZ
[3] = system: Mycolicibacterium smegmatis; assay: Antibacterial activity against Mycobacterium smegmatis CCM 2067 at 10 ug after 24 hrs by disk diffusion method; settings: CCM 2067, 24 h, read-out: IZ
Staphylococcus aureus [4] = assay: Antibacterial activity against Staphylococcus aureus ATCC 6538 at 10 ug after 24 hrs by disk diffusion method; settings: ATCC 6538, 24 h, read-out: IZ
Micrococcus luteus [5] = assay: Antibacterial activity against Micrococcus luteus La 2971 at 10 ug by disk diffusion method; settings: read-out: IZ
Escherichia coli [6] = assay: Antibacterial activity against Escherichia coli ATCC 11230 at 10 ug after 24 hrs by disk diffusion method; settings: ATCC 11230, 24 h, read-out: IZ
Proteus vulgaris [7] = assay: Antibacterial activity against Proteus vulgaris ATCC 8427 at 10 ug after 24 hrs by disk diffusion method; settings: ATCC 8427, 24 h, read-out: IZ
Pseudomonas aeruginosa = assay: Antibacterial activity against Pseudomonas aeruginosa ATCC 27853 at 10 ug after 24 hrs by disk diffusion method; settings: ATCC 27853, 24 h, read-out: IZ
Klebsiella pneumoniae [8] = assay: Antibacterial activity against Klebsiella pneumoniae UC57 at 10 ug after 24 hrs by disk diffusion method; settings: read-out: IZ
Listeria monocytogenes [9] = assay: Antibacterial activity against Listeria monocytogenes ATCC 15313 at 30 ug after 24 hrs by disk diffusion method; settings: ATCC 15313, 24 h, read-out: IZ
[10] = system: Mycolicibacterium smegmatis; assay: Antibacterial activity against Mycobacterium smegmatis CCM 2067 at 30 ug after 24 hrs by disk diffusion method; settings: CCM 2067, 24 h, read-out: IZ
Staphylococcus aureus [11] = assay: Antibacterial activity against Staphylococcus aureus ATCC 6538 at 30 ug after 24 hrs by disk diffusion method; settings: ATCC 6538, 24 h, read-out: IZ
Escherichia coli [12] = assay: Antibacterial activity against Escherichia coli ATCC 11230 at 30 ug after 24 hrs by disk diffusion method; settings: ATCC 11230, 24 h, read-out: IZ
Proteus vulgaris [13] = assay: Antibacterial activity against Proteus vulgaris ATCC 8427 at 30 ug after 24 hrs by disk diffusion method; settings: ATCC 8427, 24 h, read-out: IZ
Bacillus cereus [14] = assay: Antibacterial activity against Bacillus cereus ATCC 7064 at 30 ug after 24 hrs by disk diffusion method; settings: ATCC 7064, 24 h, read-out: IZ
Klebsiella pneumoniae [15] = assay: Antibacterial activity against Klebsiella pneumoniae UC57 at 30 ug after 24 hrs by disk diffusion method; settings: read-out: IZ
Micrococcus luteus [16] = assay: Antibacterial activity against Micrococcus luteus La 2971 at 30 ug by disk diffusion method; settings: read-out: IZ
Debaryomyces hansenii = assay: Antifungal activity against Debaryomyces hansenii DSM 70238 at 20 ug after 72 hrs by disk diffusion method; settings: DSM 70238, 72 h, read-out: IZ
Kluyveromyces marxianus = assay: Antifungal activity against Kluyveromyces fragilis NRRL 2415 at 20 ug after 72 hrs by disk diffusion method; settings: NRRL 2415, 72 h, read-out: IZ
Rhodotorula mucilaginosa = assay: Antifungal activity against Rhodotorula rubra DSM 70403 at 20 ug after 72 hrs by disk diffusion method; settings: DSM 70403, 72 h, read-out: IZ
[17] = system: Hanseniaspora guilliermondii; assay: Antifungal activity against Hanseniaspora guilliermondii DSM 3432 at 20 ug after 72 hrs by disk diffusion method; settings: DSM 3432, 72 h, read-out: IZ
Candida albicans = assay: Antifungal activity against Candida albicans ATCC 10231 at 20 ug after 72 hrs by disk diffusion method; settings: ATCC 10231, 72 h, read-out: IZ

CC1(C)S[C@@H]2[C@H](NC(=O)[C@H](N)c3ccccc3)C(=O)N2[C@H]1C(=O)O [AMPICILLIN]
zone of inhibition at 10 µg/disc (Listeria monocytogenes [1]): 12 mm | zone of inhibition at 10 µg/disc (Bacillus cereus [2]): 12 mm | zone of inhibition at 10 µg/disc [3]: 21 mm | zone of inhibition at 10 µg/disc (Staphylococcus aureus [4]): 16 mm | zone of inhibition at 10 µg/disc (Micrococcus luteus [5]): 32 mm | zone of inhibition at 10 µg/disc (Escherichia coli [6]): 12 mm | zone of inhibition at 10 µg/disc (Proteus vulgaris [7]): 16 mm | zone of inhibition at 10 µg/disc (Pseudomonas aeruginosa): 10 mm | zone of inhibition at 10 µg/disc (Klebsiella pneumoniae [8]): 14 mm

CO/N=C(\C(=O)N[C@@H]1C(=O)N2C(C(=O)O)=C(COC(C)=O)CS[C@H]12)c1csc(N)n1 [CEFOTAXIME]
zone of inhibition at 30 µg/disc (Listeria monocytogenes [9]): 16 mm | zone of inhibition at 30 µg/disc [10]: 11 mm | zone of inhibition at 30 µg/disc (Staphylococcus aureus [11]): 12 mm | zone of inhibition at 30 µg/disc (Escherichia coli [12]): 10 mm | zone of inhibition at 30 µg/disc (Proteus vulgaris [13]): 18 mm | zone of inhibition at 30 µg/disc (Bacillus cereus [14]): 14 mm | zone of inhibition at 30 µg/disc (Klebsiella pneumoniae [15]): 13 mm | zone of inhibition at 30 µg/disc (Micrococcus luteus [16]): 32 mm

CC(=O)N1CCN(c2ccc(OCC3COC(Cn4ccnc4)(c4ccc(Cl)cc4Cl)O3)cc2)CC1 (configuration not stated) [KETOCONAZOLE]
zone of inhibition at 20 µg/disc (Debaryomyces hansenii): 14 mm | zone of inhibition at 20 µg/disc (Kluyveromyces marxianus): 16 mm | zone of inhibition at 20 µg/disc (Rhodotorula mucilaginosa): 22 mm | zone of inhibition at 20 µg/disc [17]: 24 mm | zone of inhibition at 20 µg/disc (Candida albicans): 21 mm
